Test results: US9827190B2, “Intradermal delivery of immunological compositions comprising toll-like receptor 7 agonists” (GLAXOSMITHKLINE BIOLOGICALS SA, priority 2013, dated 2017)

Tested on: X181 H1N1 Cal, X187 H3N2 Perth and B/Brisbane
Assay type: in vivo, Balb/c mice
Conditions: adjuvant dose 100 μg, 20 μl

Cc1ccc2c(c1)nc(N)c1ncc(CCc3ccc(OCCOCCOCCC(F)(F)P(=O)(O)O)cc3C)cc12 [T1b]
immune response compared to both intradermal or intramuscular immunization using antigen alone: significantly improved immune response
